In the NIST ThermoML archive (doi:10.1021/je025657+):
“And” between values parts separate entries of the source, which are not always exact repeats. Identical values can stand only once. Numbers after ± are expanded uncertainties.

## COC(F)(F)C(F)(F)F [methyl pentafluoroethyl ether]
360 K, 2003.3 kPa, Liquid
  mass density: 1056.42 ± 0.49 kg/m3
360 K, 2053.3 kPa, Liquid
  mass density: 1055.56 ± 0.49 kg/m3
360 K, 2463 kPa, Liquid
  mass density: 1063.09 ± 0.52 kg/m3
360 K, 2984.8 kPa, Liquid
  mass density: 1070.14 ± 0.55 kg/m3
360 K, 3048.1 kPa, Liquid
  mass density: 1069.38 ± 0.55 kg/m3
360 K, 3506.1 kPa, Liquid
  mass density: 1076.76 ± 0.58 kg/m3
360 K, 4021.5 kPa, Liquid
  mass density: 1082.91 ± 0.62 kg/m3
360 K, 4078.7 kPa, Liquid
  mass density: 1081.81 ± 0.61 kg/m3
360 K, 4467.5 kPa, Liquid
  mass density: 1087.96 ± 0.64 kg/m3
360 K, 5021.2 kPa, Liquid
  mass density: 1093.94 ± 0.69 kg/m3
360 K, 5093.9 kPa, Liquid
  mass density: 1092.92 ± 0.69 kg/m3
360 K, 5527.2 kPa, Liquid
  mass density: 1099.14 ± 0.73 kg/m3
360 K, 5980.2 kPa, Liquid
  mass density: 1103.61 ± 0.76 kg/m3
360 K, 6147.8 kPa, Liquid
  mass density: 1103.45 ± 0.77 kg/m3
360 K, 6519.9 kPa, Liquid
  mass density: 1108.71 ± 0.81 kg/m3
360 K, 6997.3 kPa, Liquid
  mass density: 1113.07 ± 0.85 kg/m3
360 K, 7245.1 kPa, Liquid
  mass density: 1113.38 ± 0.86 kg/m3
360 K, Gas
  mass density: 77.81 ± 0.25 kg/m3
360 K, Liquid
  mass density: 1040.97 ± 0.43 kg/m3 and 1042.15 ± 0.43 kg/m3 and 1042.21 ± 0.43 kg/m3
370 K, 71.6 kPa, Gas
  mass density: 3.44 ± 0.29 kg/m3
370 K, 105.5 kPa, Gas
  mass density: 5.15 ± 0.29 kg/m3
370 K, 120.9 kPa, Gas
  mass density: 6.04 ± 0.29 kg/m3
370 K, 154.8 kPa, Gas
  mass density: 7.64 ± 0.3 kg/m3
370 K, 176.6 kPa, Gas
  mass density: 8.92 ± 0.3 kg/m3
370 K, 226.2 kPa, Gas
  mass density: 11.41 ± 0.31 kg/m3
370 K, 256.7 kPa, Gas
  mass density: 13.19 ± 0.31 kg/m3
370 K, 328.5 kPa, Gas
  mass density: 16.95 ± 0.32 kg/m3
370 K, 370 kPa, Gas
  mass density: 19.53 ± 0.33 kg/m3
370 K, 471.8 kPa, Gas
  mass density: 25.21 ± 0.34 kg/m3
370 K, 527.2 kPa, Gas
  mass density: 28.67 ± 0.35 kg/m3
370 K, 666.8 kPa, Gas
  mass density: 37.39 ± 0.38 kg/m3
370 K, 737.9 kPa, Gas
  mass density: 42.35 ± 0.4 kg/m3
370 K, 920.6 kPa, Gas
  mass density: 55.26 ± 0.44 kg/m3
370 K, 1005.3 kPa, Gas
  mass density: 62.34 ± 0.47 kg/m3
370 K, 1205.2 kPa, Gas
  mass density: 80.41 ± 0.53 kg/m3
370 K, 1224.5 kPa, Gas
  mass density: 81.87 ± 0.54 kg/m3
370 K, 1277.5 kPa, Gas
  mass density: 87.49 ± 0.56 kg/m3
370 K, 1278.1 kPa, Gas
  mass density: 88.01 ± 0.57 kg/m3
370 K, 1404.3 kPa, Liquid
  mass density: 992.2 ± 0.35 kg/m3
370 K, 1431.7 kPa, Liquid
  mass density: 992.85 ± 0.35 kg/m3
370 K, 1520 kPa, Liquid
  mass density: 995.4 ± 0.34 kg/m3
370 K, 1998.7 kPa, Liquid
  mass density: 1006.05 ± 0.36 kg/m3
370 K, 2031.8 kPa, Liquid
  mass density: 1006.03 ± 0.36 kg/m3
370 K, 2519.7 kPa, Liquid
  mass density: 1016.39 ± 0.38 kg/m3
370 K, 3015.7 kPa, Liquid
  mass density: 1025.26 ± 0.41 kg/m3
370 K, 3042 kPa, Liquid
  mass density: 1024.99 ± 0.41 kg/m3
370 K, 3496.9 kPa, Liquid
  mass density: 1033.2 ± 0.44 kg/m3
370 K, 4012.1 kPa, Liquid
  mass density: 1041.13 ± 0.47 kg/m3
370 K, 4077.7 kPa, Liquid
  mass density: 1041.14 ± 0.47 kg/m3
370 K, 4515.8 kPa, Liquid
  mass density: 1048.28 ± 0.5 kg/m3
370 K, 5031.9 kPa, Liquid
  mass density: 1055.14 ± 0.53 kg/m3
370 K, 5127.4 kPa, Liquid
  mass density: 1055.31 ± 0.53 kg/m3
370 K, 5527.5 kPa, Liquid
  mass density: 1061.36 ± 0.56 kg/m3
370 K, 5982.5 kPa, Liquid
  mass density: 1066.79 ± 0.59 kg/m3
370 K, 6112.9 kPa, Liquid
  mass density: 1067.19 ± 0.59 kg/m3
370 K, 6526.3 kPa, Liquid
  mass density: 1072.95 ± 0.63 kg/m3
370 K, 6886.1 kPa, Liquid
  mass density: 1076.82 ± 0.65 kg/m3
370 K, 7213.4 kPa, Liquid
  mass density: 1079.13 ± 0.67 kg/m3
370 K, Gas
  mass density: 101.33 ± 0.29 kg/m3
370 K, Liquid
  mass density: 991.98 ± 0.35 kg/m3 and 992.32 ± 0.35 kg/m3 and 992.42 ± 0.35 kg/m3
380 K, 74.8 kPa, Gas
  mass density: 3.57 ± 0.29 kg/m3
380 K, 110.1 kPa, Gas
  mass density: 5.3 ± 0.29 kg/m3
380 K, 161.5 kPa, Gas
  mass density: 7.87 ± 0.3 kg/m3
380 K, 235.9 kPa, Gas
  mass density: 11.67 ± 0.31 kg/m3
380 K, 268.9 kPa, Gas
  mass density: 13.32 ± 0.31 kg/m3
380 K, 342.4 kPa, Gas
  mass density: 17.25 ± 0.32 kg/m3
380 K, 408.5 kPa, Gas
  mass density: 20.83 ± 0.33 kg/m3
380 K, 492.2 kPa, Gas
  mass density: 25.55 ± 0.35 kg/m3
380 K, 502.4 kPa, Gas
  mass density: 26.12 ± 0.35 kg/m3
380 K, 602.7 kPa, Gas
  mass density: 31.98 ± 0.36 kg/m3
380 K, 697.5 kPa, Gas
  mass density: 37.81 ± 0.38 kg/m3
380 K, 703.9 kPa, Gas
  mass density: 38.16 ± 0.38 kg/m3
380 K, 804.6 kPa, Gas
  mass density: 44.65 ± 0.41 kg/m3
380 K, 899.8 kPa, Gas
  mass density: 51.1 ± 0.43 kg/m3
380 K, 969.2 kPa, Gas
  mass density: 56.06 ± 0.45 kg/m3
380 K, 1019.1 kPa, Gas
  mass density: 59.71 ± 0.46 kg/m3
380 K, 1101.8 kPa, Gas
  mass density: 66.08 ± 0.49 kg/m3
380 K, 1212.9 kPa, Gas
  mass density: 75.17 ± 0.52 kg/m3
380 K, 1295.3 kPa, Gas
  mass density: 82.53 ± 0.55 kg/m3
380 K, 1299.2 kPa, Gas
  mass density: 82.86 ± 0.55 kg/m3
380 K, 1417.2 kPa, Gas
  mass density: 94.38 ± 0.59 kg/m3
380 K, 1486.5 kPa, Gas
  mass density: 101.79 ± 0.62 kg/m3
380 K, 1486.8 kPa, Gas
  mass density: 101.8 ± 0.62 kg/m3
380 K, 1499.7 kPa, Gas
  mass density: 103.34 ± 0.63 kg/m3
380 K, 1530.9 kPa, Gas
  mass density: 107.11 ± 0.64 kg/m3
380 K, 1744.3 kPa, Liquid
  mass density: 935.88 ± 0.5 kg/m3
380 K, 1763.3 kPa, Liquid
  mass density: 936.59 ± 0.5 kg/m3
380 K, 1785 kPa, Liquid
  mass density: 937.35 ± 0.5 kg/m3
380 K, 1807.8 kPa, Liquid
  mass density: 938.21 ± 0.5 kg/m3
380 K, 2057.3 kPa, Liquid
  mass density: 946.7 ± 0.47 kg/m3
380 K, 2481.3 kPa, Liquid
  mass density: 959.56 ± 0.44 kg/m3
380 K, 2986.2 kPa, Liquid
  mass density: 972.71 ± 0.41 kg/m3
380 K, 3036.6 kPa, Liquid
  mass density: 973.66 ± 0.41 kg/m3
380 K, 3496.2 kPa, Liquid
  mass density: 984.34 ± 0.38 kg/m3
380 K, 4004.9 kPa, Liquid
  mass density: 994.7 ± 0.35 kg/m3
380 K, 4035.7 kPa, Liquid
  mass density: 994.89 ± 0.35 kg/m3
380 K, 4514.5 kPa, Liquid
  mass density: 1004.14 ± 0.35 kg/m3
380 K, 4998.2 kPa, Liquid
  mass density: 1012.37 ± 0.38 kg/m3
380 K, 5093.2 kPa, Liquid
  mass density: 1013.21 ± 0.38 kg/m3
380 K, 5510.3 kPa, Liquid
  mass density: 1020.45 ± 0.41 kg/m3
380 K, 6032.6 kPa, Liquid
  mass density: 1028.11 ± 0.44 kg/m3
380 K, 6103.7 kPa, Liquid
  mass density: 1028.48 ± 0.44 kg/m3
380 K, 6514.1 kPa, Liquid
  mass density: 1034.76 ± 0.47 kg/m3
380 K, 7011.9 kPa, Liquid
  mass density: 1041.19 ± 0.5 kg/m3
380 K, 7127.1 kPa, Liquid
  mass density: 1041.96 ± 0.5 kg/m3
380 K, Gas
  mass density: 133.96 ± 0.34 kg/m3
380 K, Liquid
  mass density: 934.86 ± 0.48 kg/m3 and 935.87 ± 0.48 kg/m3
